{"source": "patent US10022377B2", "about": "“Method of treating hypertension” (Cipla Limited, priority 2015, dated 2018)", "key": {"[1]": {"tested_on": "rats with monocrotaline induced pulmonary arterial hypertension", "experiment": "Hemodynamic evaluation in anesthetized rats treated with monocrotaline to induce pulmonary arterial hypertension", "type": "in vivo, Sprague-Dawley rats", "details": "for RV/LV + S: Fulton's Index; for RV/LV + S / HR / HW/BW / Heart Wt / LV Wt / Lung Wt / MAP / Mean PAP / RV Wt / RV/BW / Systolic PAP: 28 days, MCT rats, mean ± SEM", "procedure": "The effects of sildenafil and anagrelide were evaluated in rats with monocrotaline induced pulmonary arterial hypertension. Male Sprague-Dawley rats were orally administered vehicle (variable, see below), anagrelide (1 mg/kg given once daily for 28 days or 2 mg/kg total daily dose, divided into a BID regimen given every day for 28 days starting on Day 1), or sildenafil (30 mg/kg, administered twice daily) (n=10 in each group). Rats received a single injection of monocrotaline (60 mg/kg, s.c.) on Study Day 1. On the twenty-eighth day following monocrotaline dosing, the rats were anesthetized with ketamine/xylazine for terminal monitoring of pulmonary and systemic arterial pressures along with heart rate. The study design for the test article and vehicle administrations are detailed below: […]"}, "[2]": {"tested_on": "platelets", "details": "metabolite; in words; cited from earlier work"}, "[3]": {"tested_on": "rat monocrotaline (MCT) model of PAH", "experiment": "Pulmonary arterial hypertension efficacy model: monocrotaline rat", "type": "in vivo, Sprague-Dawley rats", "details": "in words", "procedure": "Adult male Sprague-Dawley rats (287±4 g) were obtained from Charles River Laboratories (Raleigh, N.C.). Animals housed individually in a temperature/humidity controlled room with 12-hour light/dark cycles, had free access to water and food and were acclimated for one week prior to the study. Rats were randomly assigned to one of the experimental groups (n=10 per group). Rats in groups 1 and 2 served as healthy controls; the remaining rats were injected subcutaneously on Day 0 with 60 mg/kg body weight monocrotaline, the toxic alkaloid of Crotalaria spectabilis, (dissolved in DMSO at a concentration of 60 mg/ml, Sigma Aldrich, St. Louis, Mo.). On days 1-21, the rats were dosed via oral gavage (2 ml/kg) with vehicle (PBS), or the test compound—Anagrelide. Rats were weighed daily, and the dosages of test compound adjusted appropriately.\nMonocrotaline (MCT) is an 11-membered macrocyclic pyrrolizidine plant alkaloid. A single SQ injection into rats results in hepatic generation of toxic metabolite—MCT pyrrole. Phase II metabolism of MCT is through glutathione conjugation. Reactive metabolite is transported to lungs, injuring pulmonary vasculature."}, "[4]": {"tested_on": "platelets", "details": "preclinical pharmacology data; in words; cited from earlier work"}, "[5]": {"details": "metabolite versus anagrelide; cited from earlier work"}, "[6]": {"details": "Sildenafil 60 mg/kg/day bid oral"}, "[7]": {"details": "daily oral doses for three weeks"}, "[8]": {"details": "2 mg/kg/day given BID, after 28 days, in words"}, "[9]": {"details": "Anagrelide 1 mg/kg once daily oral"}, "[10]": {"details": "Anagrelide 2 mg/kg/day bid oral"}}, "data": [{"smiles": "CCCc1nn(C)c2c(=O)[nH]c(-c3cc(S(=O)(=O)N4CCN(C)CC4)ccc3OCC)nc12", "note": "[Sildenafil]", "values": [{"measurement": "RV/LV + S", "setting": "[1]; [6]", "value": "0.51 ± 0.03"}, {"measurement": "HR", "setting": "[1]; [6]", "value": "278 ± 21", "unit": "bpm"}, {"measurement": "HW/BW", "setting": "[1]; [6]", "value": "3.89 ± 0.17"}, {"measurement": "Heart Wt", "setting": "[1]; [6]", "value": "1.24 ± 0.02", "unit": "g"}, {"measurement": "LV Wt", "setting": "[1]; [6]", "value": "0.74 ± 0.02", "unit": "g"}, {"measurement": "Lung Wt", "setting": "[1]; [6]", "value": "2.36 ± 0.13", "unit": "g"}, {"measurement": "MAP", "setting": "[1]; [6]", "value": "69 ± 5", "unit": "mm Hg"}, {"measurement": "Mean PAP", "setting": "[1]; [6]", "value": "38± 6", "unit": "mm Hg"}, {"measurement": "RV Wt", "setting": "[1]; [6]", "value": "0.38 ± 0.02", "unit": "g"}, {"measurement": "RV/BW", "setting": "[1]; [6]", "value": "1.19 ± 0.09"}, {"measurement": "Systolic PAP", "setting": "[1]; [6]", "value": "46 ± 7", "unit": "mm Hg"}]}, {"smiles": "NC1=Nc2ccc(Cl)c(Cl)c2CN1", "note": "[RL603, 5,6-dichloro-3,4-dihydroquinazolin-2-ylamine]", "values": [{"measurement": "participation in the overall effect of AGRYLIN", "setting": "[2]", "value": "does not participate"}]}, {"smiles": "O=C1CN2Cc3c(ccc(Cl)c3Cl)N=C2N1", "note": "[Anagrelide, anagrelide]", "values": [{"measurement": "development of PAH", "setting": "[3]; daily oral doses for three weeks after MCT 60 mg/kg s.c.", "value": "prevent the development of PAH"}, {"measurement": "hypertrophy of the right ventricle", "setting": "[3]; [7]", "value": "prevents"}, {"measurement": "monocrotaline (MCT)-induced elevations in pressure in the pulmonary arterial circuit", "setting": "[3]; [7]", "value": "prevents"}, {"measurement": "mean pulmonary arterial pressure compared to the vehicle group", "setting": "[1]; [8]", "value": "differences"}, {"measurement": "systolic pulmonary arterial pressure compared to the vehicle group", "setting": "[1]; [8]", "value": "reduction"}, {"measurement": "HR", "setting": "[1]; [9]", "value": "325 ± 28", "unit": "bpm"}, {"measurement": "HW/BW", "setting": "[1]; [9]", "value": "4.34 ± 0.45"}, {"measurement": "Heart Wt", "setting": "[1]; [9]", "value": "1.37 ± 0.03", "unit": "g"}, {"measurement": "LV Wt", "setting": "[1]; [9]", "value": "0.76 ± 0.01", "unit": "g"}, {"measurement": "Lung Wt", "setting": "[1]; [9]", "value": "2.10 ± 0.19", "unit": "g"}, {"measurement": "MAP", "setting": "[1]; [9]", "value": "59 ± 5", "unit": "mm Hg"}, {"measurement": "Mean PAP", "setting": "[1]; [9]", "value": "36 ± 2", "unit": "mm Hg"}, {"measurement": "RV Wt", "setting": "[1]; [9]", "value": "0.47 ± 0.01", "unit": "g"}, {"measurement": "RV/BW", "setting": "[1]; [9]", "value": "1.49 ± 0.16"}, {"measurement": "Systolic PAP", "setting": "[1]; [9]", "value": "44 ± 2", "unit": "mm Hg"}, {"measurement": "HR", "setting": "[1]; [10]", "value": "258 ± 10", "unit": "bpm"}, {"measurement": "HW/BW", "setting": "[1]; [10]", "value": "3.98 ± 0.24"}, {"measurement": "Heart Wt", "setting": "[1]; [10]", "value": "1.21 ± 0.04", "unit": "g"}, {"measurement": "LV Wt", "setting": "[1]; [10]", "value": "0.69 ± 0.02", "unit": "g"}, {"measurement": "Lung Wt", "setting": "[1]; [10]", "value": "2.21 ± 0.07", "unit": "g"}, {"measurement": "MAP", "setting": "[1]; [10]", "value": "52 ± 6", "unit": "mm Hg"}, {"measurement": "Mean PAP", "setting": "[1]; [10]", "value": "36 ± 2", "unit": "mm Hg"}, {"measurement": "RV Wt", "setting": "[1]; [10]", "value": "0.41 ± 0.02", "unit": "g"}, {"measurement": "RV/BW", "setting": "[1]; [10]", "value": "1.35 ± 0.12"}, {"measurement": "Systolic PAP", "setting": "[1]; [10]", "value": "43 ± 4", "unit": "mm Hg"}, {"measurement": "RV/LV + S", "setting": "[1]; [9]", "value": "0.62 ± 0.01"}, {"measurement": "RV/LV + S", "setting": "[1]; [10]", "value": "0.59 ± 0.04"}, {"measurement": "hypertrophy when correcting RV (wt) by body weight", "setting": "[1]; at either dose, in words", "value": "decrease in hypertrophy"}, {"measurement": "Mean arterial pressure compared to vehicle", "setting": "[1]; in words", "value": "lower"}, {"measurement": "right ventricular hypertrophy (RV/LV+S, Fulton's Index) compared to vehicle", "setting": "[1]; in words", "value": "no change"}, {"measurement": "effect on other cellular components of the blood", "setting": "[4]", "value": "no significant effect"}, {"measurement": "inhibition of platelet aggregation", "setting": "[4]", "value": "potent inhibitor"}]}, {"smiles": "O=C1NC2=Nc3ccc(Cl)c(Cl)c3CN2C1O", "note": "(stereo not drawn) [BCH24426, 3-hydroxy anagrelide]", "values": [{"measurement": "Exposure as measured by plasma AUC compared to anagrelide", "setting": "[5]", "value": "approximately 2 fold"}]}]}
